The text below walks through data of PubChem BioAssay (NCI).

Each structure is given as a SMILES string. “And” between values parts separate entries of the source, which are not always exact repeats. Identical values can stand only once.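 Where inhibition never reached the appropriate level, the endpoint shown equals the highest concentration tested. Otherwise, values were interpolated linearly from a five-concentration, 48-hour dose response in 96-well plates. GI50 = concentration required for 50% inhibition of growth. TGI marks complete inhibition of growth.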

Some test systems named below: 786-0 renal; COLO 205 colon; NCI-H226 lung; SK-MEL-5 melanoma; SR leukemia; UACC-62 melanoma; UO-31 renal; NCI/ADR-RES ovarian; CAKI-1 renal; NCI-H522 lung.
Holding throughout (test): DTP human tumour cell line panel, 48 h

`CCOC(=O)CCC(NC(=O)OCc1ccccc1)C(=O)NC(CCC(=O)OCC)C(=O)NC(CCC(=O)OCC)C(=O)NNC(=O)OC(C)(C)C` (stereo not given): the TGI with 786-0 renal, in the experiment with COLO 205 colon, in the experiment with NCI-H226 lung, in the experiment with SK-MEL-5 melanoma, in the experiment with SR leukemia and with UACC-62 melanoma was above 100 µM each time. For the same molecule, the TGI – broadly, the concentration giving total growth inhibition – with UO-31 renal was above 100 µM.

As for `COc1cc2oc(=O)cc(C)c2cc1OC`, the TGI in the experiment on 786-0 renal, in the experiment on COLO 205 colon, in the experiment with NCI-H226 lung, in the experiment with NCI/ADR-RES ovarian, in the experiment on SK-MEL-5 melanoma and with SR leukemia was above 100 µM throughout. Further, the TGI in the experiment with UACC-62 melanoma and in the experiment on UO-31 renal was above 100 µM each time.

Turning to `COC(=O)c1cc(C)ccc1C1CN=NC12Cc1c(C)cc(C)cc1C2=O` (stereo not given), the total growth inhibition concentration (TGI) with 786-0 renal was above 100 µM; in the experiment on CAKI-1 renal it was above 100 µM; in the experiment with COLO 205 colon it was 31.4 µM; with NCI-H226 lung, 87.6 µM; in the experiment with NCI-H522 lung it was 34.5 µM; in the experiment with NCI/ADR-RES ovarian, 46.8 µM. Also, the TGI in the experiment with SK-MEL-5 melanoma is 31.6 µM; with UACC-62 melanoma, 49.6 µM; in the experiment on UO-31 renal, above 100 µM.

Turning to `CCC1(OC(=O)CN)C(=O)OCc2c1cc1n(c2=O)Cc2cc3cc4c(cc3nc2-1)OCO4` (stereo not given), the 50% growth inhibitory concentration (GI50) (as a rule, the concentration at which growth is held to half of that of the control) with CAKI-1 renal is below 0.01 µM; with COLO 205 colon, 0.362 µM and 0.15 µM; with NCI-H226 lung, 0.024 µM and < 0.01 µM; with NCI-H522 lung, 0.0531 µM and < 0.01 µM; with NCI/ADR-RES ovarian, below 0.01 µM; in the experiment with SK-MEL-5 melanoma, below 0.01 µM. The GI50 was below 0.01 µM in the experiment with UACC-62 melanoma; < 0.01 µM and 0.0614 µM with UO-31 renal. The concentration for total growth inhibition (TGI) with CAKI-1 renal is 0.171 µM; with COLO 205 colon it was 2.56 µM and 1.78 µM; with NCI-H226 lung it was 0.201 µM and 0.299 µM; with NCI-H522 lung it was 1.43 µM and 0.243 µM; with NCI/ADR-RES ovarian, 0.231 µM and 0.0889 µM; with SK-MEL-5 melanoma, 0.0759 µM. Also, the TGI is below 0.01 µM in the experiment with UACC-62 melanoma; 0.151 µM and 0.4 µM with UO-31 renal.

On to `Cn1c(=O)n(CC2CS2)c2ccccc21` (stereo not given), for which the TGI in the experiment on CAKI-1 renal, with COLO 205 colon, in the experiment on NCI-H226 lung, with NCI-H522 lung, in the experiment on SR leukemia and in the experiment with UACC-62 melanoma was above 100 µM throughout. Besides, in the experiment on UO-31 renal, the TGI was above 100 µM.

Consider `C[C@]12CCC(=O)C=C1CC[C@@H]1[C@@H]2[C@@H](O)C[C@@]2(C)[C@H]1CC[C@]2(O)C(=O)COC(=O)CCC1CCCC1`, for which the TGI in the experiment on 786-0 renal, in the experiment on CAKI-1 renal, in the experiment on COLO 205 colon, in the experiment on NCI-H226 lung, with NCI-H522 lung and in the experiment on SK-MEL-5 melanoma was above 100 µM in each case. The concentration for total growth inhibition (TGI) with SR leukemia, in the experiment with UACC-62 melanoma and with UO-31 renal was above 100 µM each time.

With `COc1cc2oc(=O)cc(C)c2c(OC)c1OC(C)=O`, the concentration for total growth inhibition (TGI) in the experiment on 786-0 renal, in the experiment on COLO 205 colon, in the experiment with NCI-H226 lung, with NCI/ADR-RES ovarian, in the experiment with SK-MEL-5 melanoma and with SR leukemia was above 100 µM each time. Besides, the TGI in the experiment on UACC-62 melanoma and with UO-31 renal was above 100 µM throughout.

With `COc1cc(CNC(=S)CCCCCCCCCCC(C)C)ccc1O`, the TGI was above 100 µM with 786-0 renal; above 100 µM in the experiment on COLO 205 colon; 86.3 µM in the experiment on NCI-H226 lung; above 100 µM with NCI/ADR-RES ovarian; above 100 µM in the experiment with SK-MEL-5 melanoma; above 100 µM in the experiment on SR leukemia. Further, the TGI is above 100 µM in the experiment on UACC-62 melanoma and 95.7 µM in the experiment on UO-31 renal.

For the molecule `COC(=O)/C=c1/c2ccccc2n2c1c1ccccc1[n+]2C`, the TGI with 786-0 renal was 14.9 µM; with CAKI-1 renal it was 70.9 µM; in the experiment with COLO 205 colon, 2.51 µM; in the experiment on NCI-H226 lung, 21 µM; in the experiment on NCI/ADR-RES ovarian it was above 100 µM; in the experiment with SK-MEL-5 melanoma, 8.12 µM. Further, the results for the concentration for total growth inhibition (TGI) in the experiment with UACC-62 melanoma and in the experiment on UO-31 renal were 27.5 µM and 20.4 µM, respectively.

As to `CC(=O)NC(=O)NC1=NCCC(=O)N1CCc1c[nH]c2ccccc12`, the TGI in the experiment on 786-0 renal, in the experiment on CAKI-1 renal, with COLO 205 colon, in the experiment on NCI-H226 lung, in the experiment on NCI-H522 lung and with NCI/ADR-RES ovarian was above 100 µM throughout. In addition, the TGI in the experiment on SK-MEL-5 melanoma, in the experiment on UACC-62 melanoma and with UO-31 renal was above 100 µM throughout.

Consider `C[PH+](c1nc2ccccc2nc1[PH+](C)C(C)(C)C)C(C)(C)C.C[PH+](c1nc2ccccc2nc1[PH+](C)C(C)(C)C)C(C)(C)C.[Au+].[Cl-]` (stereo not given), for which the GI50 with CAKI-1 renal is 0.222 µM; with COLO 205 colon it was 0.0198 µM; in the experiment with NCI-H226 lung, 0.0539 µM; in the experiment with SK-MEL-5 melanoma, 0.0329 µM; in the experiment on UACC-62 melanoma it was 0.0371 µM. The TGI in the experiment with CAKI-1 renal came out at 0.537 µM; in the experiment on COLO 205 colon, 0.0442 µM; with NCI-H226 lung, 2.44 µM; with SK-MEL-5 melanoma, 0.105 µM; in the experiment on UACC-62 melanoma, 0.165 µM.

`CCOC(=O)c1c(N)sc2c1C(C(=O)OCC)CCC2` (stereo not given): the TGI with 786-0 renal, in the experiment on COLO 205 colon, with NCI-H226 lung, in the experiment with SK-MEL-5 melanoma, with SR leukemia and with UACC-62 melanoma was above 100 µM throughout. In addition, in the experiment on UO-31 renal, the concentration for total growth inhibition (TGI) is above 100 µM.

Regarding `Cc1cn(CCOCCOC(=O)NC(CCCNC(N)=O)C(=O)O)c(=O)[nH]c1=O` (stereo not given), the TGI with 786-0 renal, in the experiment with CAKI-1 renal, in the experiment on COLO 205 colon, with NCI-H226 lung, in the experiment with NCI/ADR-RES ovarian and in the experiment on SR leukemia was above 100 µM in each case. For the same molecule, the total growth inhibition concentration (TGI) in the experiment on UACC-62 melanoma and in the experiment on UO-31 renal was above 100 µM in each case.

As to `Cc1c(C#N)c(=N)oc2ccccc12`, the TGI in the experiment with 786-0 renal, with CAKI-1 renal, in the experiment on COLO 205 colon, in the experiment with NCI-H226 lung, with NCI/ADR-RES ovarian and in the experiment with SK-MEL-5 melanoma was above 100 µM throughout. Besides, the TGI with UACC-62 melanoma and in the experiment with UO-31 renal was above 100 µM in each case.

For the molecule `CC(C)(C)C(=O)N1CCN(C=O)C1=S`, the total growth inhibition concentration (TGI) in the experiment on 786-0 renal, in the experiment on CAKI-1 renal, in the experiment on COLO 205 colon, with NCI-H226 lung, with NCI-H522 lung and with NCI/ADR-RES ovarian was above 100 µM in each case. The TGI is above 100 µM in the experiment on UACC-62 melanoma and 60.2 µM in the experiment on UO-31 renal.
